Measured values from ChEMBL document CHEMBL1139656, “Aminoalkyl phenyl sulfones--a novel series of 5-HT7 receptor ligands” (Bioorg Med Chem Lett, 2006).

How the values were obtained:
[1] = target: T1, 5-hydroxytryptamine receptor 7 (Homo sapiens, UniProt P34969); test: Displacement of [3H]5-HT from the cloned human 5-HT7 receptor expressed in CHO cells; type: cell-based
[2] = target: 5-hydroxytryptamine receptor 2A (Homo sapiens, UniProt P28223); test: Displacement of [3H]ketanserin from the cloned human 5-HT2A receptor expressed in CHO cells; type: cell-based
[3] = target: T2, Adrenergic receptor alpha-1 (Rattus norvegicus, UniProt P15823+P23944+P43140); test: Displacement of [3H]prazosin from alpha-1 adrenergic receptor in rat cortex
T2 sequence (P15823 whole entry): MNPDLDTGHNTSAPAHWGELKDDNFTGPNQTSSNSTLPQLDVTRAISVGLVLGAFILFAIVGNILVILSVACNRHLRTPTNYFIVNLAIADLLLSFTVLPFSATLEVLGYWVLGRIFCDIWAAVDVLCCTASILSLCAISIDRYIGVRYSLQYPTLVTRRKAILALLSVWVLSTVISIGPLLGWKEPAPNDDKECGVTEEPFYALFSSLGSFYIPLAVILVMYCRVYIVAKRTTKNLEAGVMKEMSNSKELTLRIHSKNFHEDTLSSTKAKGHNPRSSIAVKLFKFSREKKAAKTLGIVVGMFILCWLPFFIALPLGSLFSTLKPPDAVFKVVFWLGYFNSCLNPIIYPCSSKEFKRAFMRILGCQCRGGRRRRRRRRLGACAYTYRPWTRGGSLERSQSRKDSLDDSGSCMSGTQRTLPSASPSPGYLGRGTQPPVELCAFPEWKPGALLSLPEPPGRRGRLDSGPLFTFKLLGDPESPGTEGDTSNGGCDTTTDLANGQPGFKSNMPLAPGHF
T2 sequence (P23944 whole entry): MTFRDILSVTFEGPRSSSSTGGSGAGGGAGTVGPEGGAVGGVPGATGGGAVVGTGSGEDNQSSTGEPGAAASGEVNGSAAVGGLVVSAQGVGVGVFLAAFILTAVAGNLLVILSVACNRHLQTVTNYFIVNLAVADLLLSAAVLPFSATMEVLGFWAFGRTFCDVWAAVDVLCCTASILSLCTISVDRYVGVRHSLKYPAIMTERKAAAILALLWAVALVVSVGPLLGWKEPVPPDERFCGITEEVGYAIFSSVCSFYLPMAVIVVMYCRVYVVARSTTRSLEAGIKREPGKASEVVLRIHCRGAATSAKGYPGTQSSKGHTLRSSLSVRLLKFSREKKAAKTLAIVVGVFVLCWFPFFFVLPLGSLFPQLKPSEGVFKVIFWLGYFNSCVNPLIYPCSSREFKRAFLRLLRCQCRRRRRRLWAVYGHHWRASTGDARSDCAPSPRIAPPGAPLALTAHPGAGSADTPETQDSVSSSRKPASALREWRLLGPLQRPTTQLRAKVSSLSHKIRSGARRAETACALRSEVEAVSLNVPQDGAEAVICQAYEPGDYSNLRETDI
T2 sequence (P43140 whole entry): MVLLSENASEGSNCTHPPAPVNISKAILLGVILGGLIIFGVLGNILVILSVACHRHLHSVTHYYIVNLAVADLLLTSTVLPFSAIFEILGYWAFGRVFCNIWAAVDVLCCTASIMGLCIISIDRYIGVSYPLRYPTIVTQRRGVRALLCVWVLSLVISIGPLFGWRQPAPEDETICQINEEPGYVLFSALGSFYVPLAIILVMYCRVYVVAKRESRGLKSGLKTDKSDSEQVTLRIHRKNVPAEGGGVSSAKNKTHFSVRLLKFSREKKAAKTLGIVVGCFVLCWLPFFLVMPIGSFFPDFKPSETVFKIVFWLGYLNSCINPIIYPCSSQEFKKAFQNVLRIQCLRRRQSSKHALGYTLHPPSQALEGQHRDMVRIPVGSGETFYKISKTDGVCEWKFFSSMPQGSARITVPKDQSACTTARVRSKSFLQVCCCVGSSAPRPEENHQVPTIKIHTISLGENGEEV

[4] = target: 5-hydroxytryptamine receptor 1B (Homo sapiens, UniProt P28222); test: Displacement of [3H]5-HT from the cloned human 5-HT1B receptor expressed in CHO cells; type: cell-based
[5] = target: T3, 5-hydroxytryptamine receptor 1A (Homo sapiens, UniProt P08908); test: Displacement of [3H]5-HT from the cloned human 5-HT1A receptor expressed in HeLa cells; type: cell-based
T3 sequence (P08908 whole entry): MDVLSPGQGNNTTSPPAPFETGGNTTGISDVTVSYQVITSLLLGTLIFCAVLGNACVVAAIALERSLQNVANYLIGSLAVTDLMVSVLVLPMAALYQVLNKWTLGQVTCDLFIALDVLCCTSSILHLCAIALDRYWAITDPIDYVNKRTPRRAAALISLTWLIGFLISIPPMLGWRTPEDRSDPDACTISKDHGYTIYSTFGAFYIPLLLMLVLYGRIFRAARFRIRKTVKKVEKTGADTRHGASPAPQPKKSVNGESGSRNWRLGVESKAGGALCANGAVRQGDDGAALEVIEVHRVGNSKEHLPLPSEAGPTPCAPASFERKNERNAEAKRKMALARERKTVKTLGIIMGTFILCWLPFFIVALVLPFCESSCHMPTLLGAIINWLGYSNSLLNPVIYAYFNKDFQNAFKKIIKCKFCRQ

[6] = target: T1, 5-hydroxytryptamine receptor 7; test: Activity towards human 5-HT7 receptor at 10 uM relative to 5-CT; type: functional
[7] = target: D(2) dopamine receptor (Homo sapiens, UniProt P14416); test: Displacement of [3H]spiperone from the cloned human D2 receptor expressed in CHO cells; type: cell-based
[8] = target: Voltage-gated inwardly rectifying potassium channel KCNH2 (Homo sapiens, UniProt Q12809); test: Displacement of [35S]-labeled MK-499 from cloned human ERG receptor expressed in HEK cells; type: cell-based, HEK293
Voltage-gated inwardly rectifying potassium channel KCNH2, sequence (Q12809 whole entry): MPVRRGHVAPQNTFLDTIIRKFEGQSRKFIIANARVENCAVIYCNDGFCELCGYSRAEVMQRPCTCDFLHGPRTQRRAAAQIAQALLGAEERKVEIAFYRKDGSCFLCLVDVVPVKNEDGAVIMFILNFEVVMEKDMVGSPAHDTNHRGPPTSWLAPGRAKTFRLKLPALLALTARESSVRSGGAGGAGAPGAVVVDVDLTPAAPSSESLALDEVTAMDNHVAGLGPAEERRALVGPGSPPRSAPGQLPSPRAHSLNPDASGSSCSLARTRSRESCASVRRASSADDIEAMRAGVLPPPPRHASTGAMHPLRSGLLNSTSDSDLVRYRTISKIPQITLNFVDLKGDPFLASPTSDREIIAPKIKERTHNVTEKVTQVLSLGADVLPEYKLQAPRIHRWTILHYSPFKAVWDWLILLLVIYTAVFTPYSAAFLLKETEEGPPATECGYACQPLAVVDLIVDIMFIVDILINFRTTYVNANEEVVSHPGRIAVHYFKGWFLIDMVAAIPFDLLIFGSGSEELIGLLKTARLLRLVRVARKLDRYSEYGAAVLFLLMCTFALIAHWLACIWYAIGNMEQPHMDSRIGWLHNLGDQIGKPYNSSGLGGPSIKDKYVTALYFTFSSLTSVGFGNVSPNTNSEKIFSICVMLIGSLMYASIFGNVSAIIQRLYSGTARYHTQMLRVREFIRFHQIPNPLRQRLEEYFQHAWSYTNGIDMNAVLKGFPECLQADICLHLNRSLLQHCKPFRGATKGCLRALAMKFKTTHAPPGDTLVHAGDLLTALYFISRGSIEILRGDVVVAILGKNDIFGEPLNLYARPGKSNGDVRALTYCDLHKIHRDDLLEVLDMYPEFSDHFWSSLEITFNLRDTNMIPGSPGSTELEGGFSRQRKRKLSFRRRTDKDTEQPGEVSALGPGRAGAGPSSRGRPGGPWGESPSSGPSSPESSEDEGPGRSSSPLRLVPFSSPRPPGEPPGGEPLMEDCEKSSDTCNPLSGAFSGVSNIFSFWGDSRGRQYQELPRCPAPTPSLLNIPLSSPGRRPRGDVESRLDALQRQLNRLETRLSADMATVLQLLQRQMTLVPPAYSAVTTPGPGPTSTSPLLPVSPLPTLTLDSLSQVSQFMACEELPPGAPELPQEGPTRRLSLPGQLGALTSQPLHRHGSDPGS

5-hydroxytryptamine receptor 2A, sequence (P28223 whole entry): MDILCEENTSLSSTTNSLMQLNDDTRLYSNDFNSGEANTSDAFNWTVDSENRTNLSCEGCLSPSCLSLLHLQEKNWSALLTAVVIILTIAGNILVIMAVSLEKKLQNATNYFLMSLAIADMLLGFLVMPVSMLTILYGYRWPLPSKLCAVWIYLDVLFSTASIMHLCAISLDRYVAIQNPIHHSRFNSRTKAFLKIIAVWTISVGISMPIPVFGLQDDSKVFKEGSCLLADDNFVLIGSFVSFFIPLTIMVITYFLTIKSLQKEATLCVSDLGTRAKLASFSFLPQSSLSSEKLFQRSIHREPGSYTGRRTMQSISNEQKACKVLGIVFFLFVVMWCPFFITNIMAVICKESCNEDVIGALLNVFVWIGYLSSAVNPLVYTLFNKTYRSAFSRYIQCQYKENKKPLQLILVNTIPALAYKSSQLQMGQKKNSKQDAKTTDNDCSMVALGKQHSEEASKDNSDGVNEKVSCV
D(2) dopamine receptor, sequence (P14416 whole entry): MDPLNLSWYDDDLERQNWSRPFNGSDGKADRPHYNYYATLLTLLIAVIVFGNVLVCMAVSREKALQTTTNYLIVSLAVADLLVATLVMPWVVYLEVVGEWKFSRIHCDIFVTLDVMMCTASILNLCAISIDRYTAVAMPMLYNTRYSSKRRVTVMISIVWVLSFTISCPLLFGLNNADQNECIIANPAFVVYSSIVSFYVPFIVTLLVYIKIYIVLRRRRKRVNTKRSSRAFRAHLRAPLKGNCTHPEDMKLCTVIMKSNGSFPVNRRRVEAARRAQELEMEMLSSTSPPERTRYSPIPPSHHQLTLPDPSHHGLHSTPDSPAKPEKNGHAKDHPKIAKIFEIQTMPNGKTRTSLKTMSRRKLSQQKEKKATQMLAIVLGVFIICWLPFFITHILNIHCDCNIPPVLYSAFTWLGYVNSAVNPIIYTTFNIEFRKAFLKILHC
T1 sequence (P34969 whole entry): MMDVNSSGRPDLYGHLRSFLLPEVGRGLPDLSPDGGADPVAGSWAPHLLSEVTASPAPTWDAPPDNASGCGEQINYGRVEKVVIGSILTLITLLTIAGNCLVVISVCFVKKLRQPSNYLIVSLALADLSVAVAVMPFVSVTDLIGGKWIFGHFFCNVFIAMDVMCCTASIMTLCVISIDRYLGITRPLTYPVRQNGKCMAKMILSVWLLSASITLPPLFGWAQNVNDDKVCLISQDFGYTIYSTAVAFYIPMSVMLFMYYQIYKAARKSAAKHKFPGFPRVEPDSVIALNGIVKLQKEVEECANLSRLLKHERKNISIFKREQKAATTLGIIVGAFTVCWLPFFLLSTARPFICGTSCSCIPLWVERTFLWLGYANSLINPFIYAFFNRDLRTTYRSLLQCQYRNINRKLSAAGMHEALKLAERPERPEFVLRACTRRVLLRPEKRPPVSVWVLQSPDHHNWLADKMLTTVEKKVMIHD
5-hydroxytryptamine receptor 1B, sequence (P28222 whole entry): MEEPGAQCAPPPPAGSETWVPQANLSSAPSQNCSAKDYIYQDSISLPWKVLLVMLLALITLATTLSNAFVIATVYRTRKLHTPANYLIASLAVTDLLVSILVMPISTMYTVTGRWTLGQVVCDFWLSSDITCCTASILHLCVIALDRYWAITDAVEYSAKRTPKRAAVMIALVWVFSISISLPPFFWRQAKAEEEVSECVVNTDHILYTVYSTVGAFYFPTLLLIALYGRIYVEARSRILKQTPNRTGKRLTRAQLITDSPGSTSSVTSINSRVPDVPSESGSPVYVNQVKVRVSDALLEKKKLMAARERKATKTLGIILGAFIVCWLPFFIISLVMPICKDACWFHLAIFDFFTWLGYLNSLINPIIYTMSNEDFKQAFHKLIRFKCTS

Row | SMILES | Ki [1] | Ki [2] | Ki [3] | Ki [4] | Ki [5] | Activity [6] | Ki [7] | Ki [8]
1 | O=S(=O)(c1ccccc1)C1(CCCN2CCN(c3ccccc3)CC2)CCC1 | 22 nM | – | – | – | – | – | – | –
2 | O=S(=O)(CCCCN1CCC2CCCCC2C1)c1ccccc1 (racemic) | 96 nM | – | – | – | – | – | – | –
3 | O=S(=O)(c1ccccc1)C1(CCCN2CCC(c3ccccc3)C2)CCC1 (racemic) | 9 nM | – | – | – | – | – | – | –
4 | CN1CCN(CCCC2(S(=O)(=O)c3ccccc3)CCC2)CC1 | 5800 nM | – | – | – | – | – | – | –
5 | CCOC(=O)[C@@H]1CCCN(CCCC(C)(C)S(=O)(=O)c2ccccc2)C1 | 24 nM | 1870 nM | > 4000 nM⁻¹ | > 7000 nM | 2400 nM | 0% | 710 nM | –
6 | CN(C)CCCC1(S(=O)(=O)c2ccccc2)CCC1 | > 7000 nM | – | – | – | – | – | – | –
7 | CCOC(=O)[C@H]1CCCN(CCCC(C)(C)S(=O)(=O)c2ccccc2)C1 | 455 nM | – | – | – | – | – | – | –
8 | O=S(=O)(c1ccccc1)C1(CCCN2CCC3CCCCC3C2)CCC1 (racemic) | 6 nM | 570 nM | – | – | 210 nM | 39% | – | –
9 | O=S(=O)(c1ccccc1)C1(CCCN2CCc3ccccc3C2)CCC1 | 8 nM | 65 nM | – | – | 35 nM | 5% | – | –
10 | CC1CCN(CCCC2(S(=O)(=O)c3ccccc3)CCC2)CC1 | 550 nM | – | – | – | – | – | – | –
11 | CC(C)(CCCN1CCCC(c2ccccc2)C1)S(=O)(=O)c1ccccc1 (racemic) | 7 nM | 1800 nM | 540 nM⁻¹ | 7700 nM | 400 nM | 0% | 220 nM | > 5000 nM
12 | O=S(=O)(c1ccccc1)C1(CCN2CCC(c3ccccc3)C2)CCC1 (racemic) | 53 nM | – | – | – | – | – | – | –
13 | CC(C)(CCCN1CC[C@@H]2CCCC[C@H]2C1)S(=O)(=O)c1ccccc1 (racemic) | 8 nM | 2000 nM | 3900 nM⁻¹ | > 7000 nM | 1500 nM | 83% | 900 nM | > 4000 nM
14 | O=S(=O)(c1ccccc1)C1(CCCN2CCC(c3ccccc3)CC2)CCC1 | 26 nM | – | – | – | – | – | – | –
15 | O=S(=O)(c1ccccc1)C1(CCCN2CCOCC2)CCC1 | > 7000 nM | – | – | – | – | – | – | –
16 | O=S(=O)(c1ccccc1)C1(CCCN2CCCCC2)CCC1 | 2700 nM | – | – | – | – | – | – | –
17 | CC(C)(CCCN1CCCC(C(F)(F)F)C1)S(=O)(=O)c1ccccc1 (racemic) | 54 nM | > 2000 nM | > 4000 nM⁻¹ | > 7000 nM | > 7000 nM | 0% | > 1000 nM | > 5000 nM
18 | O=S(=O)(c1ccccc1)C1(CCCCN2CCC(c3ccccc3)C2)CCC1 (racemic) | 13 nM | – | – | – | – | – | – | –
19 | CC(C)(CCCN1CCCC(c2cnco2)C1)S(=O)(=O)c1ccccc1 (racemic) | 15 nM | > 1000 nM | > 4000 nM⁻¹ | > 5000 nM | > 7000 nM | 12% | 1500 nM | > 8000 nM
